Values after ≈ are worked out from the molar mass of the structure shown.
What was measured:
Format in all cases: cell-based
[1] = test system: Bordetella bronchiseptica (Bor bron); test: microbe, parasite or virus in culture; settings: read-out: MIC Bor bron
[2] = test system: Mannheimia haemolytica, susceptible (Man hae s); test: MIC determination by microdilution in liquid medium; settings: susceptible strain
[3] = test system: Staphylococcus aureus, resistant (Sta aur r); test: microbe, parasite or virus in culture; settings: read-out: MIC Sta aur r
[4] = test system: Streptococcus uberis (Str ube); test: microbe, parasite or virus in culture; settings: read-out: MIC Str ube
[5] = test system: Escherichia coli (E coli); test: microbe, parasite or virus in culture; settings: read-out: MIC E coli
[6] = test system: Staphylococcus aureus, susceptible (Sta aur s); test: microbe, parasite or virus in culture; settings: read-out: MIC Sta aur s
[7] = test system: Clostridium perfringens (Clo per); test: microbe, parasite or virus in culture; settings: read-out: MIC Clo per
[8] = test system: Mycoplasma bovis (Myc bov); test: microbe, parasite or virus in culture; settings: Mycoplasmopsis bovis, read-out: MIC Myc bov
[9] = test system: Mannheimia haemolytica, resistant (Man hae r); test: MIC determination by microdilution in liquid medium; settings: resistant strain
[10] = test system: Pseudomonas aeruginosa, resistant (Pse aer r); test: microbe, parasite or virus in culture; settings: read-out: MIC Pse aer r
[11] = test system: Pseudomonas aeruginosa, susceptible (Pse aer s); test: microbe, parasite or virus in culture; settings: read-out: MIC Pse aer s

Cc1ncsc1C(=O)N1CCN(c2c(F)cc3c(=O)c(C(=O)O)cn4c3c2OCN4C)CC1 [Example 3, 8-Fluoro-3-methyl-9-[4-(4-methyl-thiazole-5-carbonyl)-piperazin-1-yl]-6-oxo-2,3-dihydro-6H-1-oxa-3,3a-diaza-phenalene-5-carboxylic acid]
MIC [1]: 2 µg/mL (≈ 4.22 µM)
MIC [2]: 0.5 µg/mL (≈ 1.06 µM)
MIC [3]: 16 µg/mL (≈ 33.8 µM)
MIC [4]: 1 µg/mL (≈ 2.11 µM)
MIC [5]: > 1 µg/mL
MIC [6]: 0.25 µg/mL (≈ 0.528 µM)
MIC [7]: 0.5 µg/mL (≈ 1.06 µM)
MIC [8]: 2 µg/mL (≈ 4.22 µM)

CN1COc2c(N3CCN4CCCC4C3)c(F)cc3c(=O)c(C(=O)O)cn1c23 (stereo not shown) [Example 7, 8-Fluoro-9-(hexahydro-pyrrolo[1,2-a]pyrazin-2-yl)-3-methyl-6-oxo-2,3-dihydro-6H-1-oxa-3,3a-diaza-phenalene-5-carboxylic acid]
MIC [1]: 0.5 µg/mL (≈ 1.29 µM)
MIC [2]: 0.03 µg/mL (≈ 0.0772 µM)
MIC [3]: 16 µg/mL (≈ 41.2 µM)
MIC [4]: 0.5 µg/mL (≈ 1.29 µM)
MIC [5]: 0.06 µg/mL (≈ 0.154 µM)
MIC [6]: 0.25 µg/mL (≈ 0.644 µM)
MIC [7]: 0.25 µg/mL (≈ 0.644 µM)
MIC [9]: 4 µg/mL (≈ 10.3 µM)
MIC [10]: 8 µg/mL (≈ 20.6 µM)
MIC [11]: 1 µg/mL (≈ 2.57 µM)
MIC [8]: 1 µg/mL (≈ 2.57 µM)

CN1COc2c(N3CCN(C(=O)c4cscn4)CC3)c(F)cc3c(=O)c(C(=O)O)cn1c23 [Example 2]
MIC [1]: > 1 µg/mL
MIC [2]: 0.25 µg/mL (≈ 0.544 µM)
MIC [3]: 8 µg/mL (≈ 17.4 µM)
MIC [4]: 2 µg/mL (≈ 4.35 µM)
MIC [5]: > 1 µg/mL
MIC [6]: 0.12 µg/mL (≈ 0.261 µM)
MIC [7]: 0.25 µg/mL (≈ 0.544 µM)
MIC [8]: 1 µg/mL (≈ 2.18 µM)

CN1COc2c(N3CCN4CCC[C@H]4C3)c(F)cc3c(=O)c(C(=O)O)cn1c23 [Example 8, 8-Fluoro-9-(S)-hexahydro-pyrrolo[1,2-a]pyrazin-2-yl-3-methyl-6-oxo-2,3-dihydro-6H-1-oxa-3,3a-diaza-phenalene-5-carboxylic acid]
MIC [1]: 0.5 µg/mL (≈ 1.29 µM)
MIC [2]: 0.03 µg/mL (≈ 0.0772 µM)
MIC [3]: 16 µg/mL (≈ 41.2 µM)
MIC [4]: 0.5 µg/mL (≈ 1.29 µM)
MIC [5]: 0.03 µg/mL (≈ 0.0772 µM)
MIC [6]: 0.25 µg/mL (≈ 0.644 µM)
MIC [7]: 0.25 µg/mL (≈ 0.644 µM)
MIC [9]: 8 µg/mL (≈ 20.6 µM)
MIC [10]: 8 µg/mL (≈ 20.6 µM)
MIC [11]: 0.5 µg/mL (≈ 1.29 µM)
MIC [8]: 1 µg/mL (≈ 2.57 µM)

CN1COc2c(N3CCN4CCC[C@@H]4C3)c(F)cc3c(=O)c(C(=O)O)cn1c23 [Example 9, 8-Fluoro-9-(R)-hexahydro-pyrrolo[1,2-a]pyrazin-2-yl-3-methyl-6-oxo-2,3-dihydro-6H-1-oxa-3,3a-diaza-phenalene-5-carboxylic acid]
MIC [1]: 0.25 µg/mL (≈ 0.644 µM)
MIC [2]: 0.03 µg/mL (≈ 0.0772 µM)
MIC [3]: 8 µg/mL (≈ 20.6 µM)
MIC [4]: 0.5 µg/mL (≈ 1.29 µM)
MIC [5]: 0.03 µg/mL (≈ 0.0772 µM)
MIC [6]: 0.12 µg/mL (≈ 0.309 µM)
MIC [7]: 0.5 µg/mL (≈ 1.29 µM)
MIC [9]: 4 µg/mL (≈ 10.3 µM)
MIC [10]: 8 µg/mL (≈ 20.6 µM)
MIC [11]: 0.5 µg/mL (≈ 1.29 µM)
MIC [8]: 0.5 µg/mL (≈ 1.29 µM)

CN1COc2c(N3CCN(C(=O)c4cccs4)CC3)c(F)cc3c(=O)c(C(=O)O)cn1c23 [Example 4, 8-Fluoro-3-methyl-6-oxo-9-[4-(thiophene-2-carbonyl)-piperazin-1-yl]-2,3-dihydro-6H-1-oxa-3,3a-diaza-phenalene-5-carboxylic acid]
MIC [1]: 2 µg/mL (≈ 4.36 µM)
MIC [2]: 0.25 µg/mL (≈ 0.545 µM)
MIC [3]: 4 µg/mL (≈ 8.72 µM)
MIC [4]: 0.5 µg/mL (≈ 1.09 µM)
MIC [5]: > 1 µg/mL
MIC [6]: 0.06 µg/mL (≈ 0.131 µM)
MIC [7]: 0.25 µg/mL (≈ 0.545 µM)
MIC [8]: 0.5 µg/mL (≈ 1.09 µM)

CN1COc2c(N3CCN(C(=O)c4cccn4C)CC3)c(F)cc3c(=O)c(C(=O)O)cn1c23 [Example 1, 8-Fluoro-3-methyl-9-[4-(1-methyl-1H-pyrrole-2-carbonyl)-piperazin-1-yl]-6-oxo-2,3-dihydro-6H-1-oxa-3,3a-diaza-phenalene-5-carboxylic acid]
MIC [1]: > 1 µg/mL
MIC [2]: 1 µg/mL (≈ 2.2 µM)
MIC [3]: 16 µg/mL (≈ 35.1 µM)
MIC [4]: 2 µg/mL (≈ 4.39 µM)
MIC [5]: > 1 µg/mL
MIC [6]: 0.25 µg/mL (≈ 0.549 µM)
MIC [7]: 0.5 µg/mL (≈ 1.1 µM)
MIC [8]: 0.5 µg/mL (≈ 1.1 µM)

CN1COc2c(N3CCN4CCCCC4C3)c(F)cc3c(=O)c(C(=O)O)cn1c23 (stereo not shown) [Example 6, 8-Fluoro-3-methyl-9-(octahydro-pyrido[1,2-a]pyrazin-2-yl)-6-oxo-2,3-dihydro-6H-1-oxa-3,3a-diaza-phenalene-5-carboxylic acid]
MIC [1]: 1 µg/mL (≈ 2.48 µM)
MIC [2]: 0.06 µg/mL (≈ 0.149 µM)
MIC [3]: 16 µg/mL (≈ 39.8 µM)
MIC [4]: 1 µg/mL (≈ 2.48 µM)
MIC [5]: 0.12 µg/mL (≈ 0.298 µM)
MIC [6]: 0.25 µg/mL (≈ 0.621 µM)
MIC [7]: 0.5 µg/mL (≈ 1.24 µM)
MIC [9]: 16 µg/mL (≈ 39.8 µM)
MIC [10]: 32 µg/mL (≈ 79.5 µM)
MIC [11]: 2 µg/mL (≈ 4.97 µM)
MIC [8]: 1 µg/mL (≈ 2.48 µM)

CN1COc2c(N3CCN(C(=O)c4ccco4)CC3)c(F)cc3c(=O)c(C(=O)O)cn1c23 [Example 5, 8-Fluoro-9-[4-(furan-2-carbonyl)-piperazin-1-yl]-3-methyl-6-oxo-Z 3-dihydro-6H-1-oxa-3,3a-diaza-phenalene-5-carboxylic acid]
MIC [1]: > 1 µg/mL
MIC [2]: 0.25 µg/mL (≈ 0.565 µM)
MIC [3]: 4 µg/mL (≈ 9.04 µM)
MIC [4]: 1 µg/mL (≈ 2.26 µM)
MIC [5]: 1 µg/mL (≈ 2.26 µM)
MIC [6]: 0.06 µg/mL (≈ 0.136 µM)
MIC [7]: < 0.03 µg/mL
MIC [11]: > 1 µg/mL
MIC [8]: 0.5 µg/mL (≈ 1.13 µM)

Source: patent publication US8071590B2, “9-substituted-5-carboxy-oxadiazino-quinolone derivatives, their preparation and their application as anti-bacterials” (Vetoquinol SA, priority 2008, dated 2011)
